We go through 14 compounds from patent US5643784A, “Indan derivatives” (H, Lundbeck A/S, priority 1990, dated 1997).

One assay addresses α1 adrenoceptors. Put plainly: Inhibition of 3H-prazosin binding to α1 adrenoceptors in rat brain in vitro. The note with it: 3H-Prazosin 0.25 nM, rat brain, 25° C., 20 min; read-out: Receptor Binding; IC50 α1 3H-Praz.
Another assay deals with T1, dopamine D-2 receptors (Rattus norvegicus, UniProt P61169).
T1 construct: striatal tissue is dissected and weighed; from tissue; host or cells: corpus striatum of male Wistar rats, crude membranes
T1 sequence (P61169 whole entry): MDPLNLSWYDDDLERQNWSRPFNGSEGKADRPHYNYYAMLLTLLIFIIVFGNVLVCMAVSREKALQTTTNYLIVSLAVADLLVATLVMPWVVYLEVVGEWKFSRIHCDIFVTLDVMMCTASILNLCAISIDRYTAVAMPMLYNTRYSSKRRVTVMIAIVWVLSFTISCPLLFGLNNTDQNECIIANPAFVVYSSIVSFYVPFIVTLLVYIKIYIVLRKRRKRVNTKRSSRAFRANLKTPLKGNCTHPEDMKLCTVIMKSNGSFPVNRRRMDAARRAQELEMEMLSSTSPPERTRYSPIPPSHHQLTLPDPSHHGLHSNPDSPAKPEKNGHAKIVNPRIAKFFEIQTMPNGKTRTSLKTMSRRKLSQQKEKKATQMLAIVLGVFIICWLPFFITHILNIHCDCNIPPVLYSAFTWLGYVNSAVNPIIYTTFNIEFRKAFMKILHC
As to the kind of experiment: Inhibition of 3H-spiperone binding to dopamine D-2 receptors in rat corpus striatum in vitro. The note with it: 3H-spiperone 0.5 nM, rat corpus striatum, 37° C., 10 min; read-out: Receptor Binding; IC50 DA D-2 3H-Spi. The method, then:
INHIBITION OF ^3 H-SPIPERONE BINDING TO DOPAMINE D-2 RECEPTORS IN RAT CORPUS STRIATUM IN VITRO
By this method the inhibition by drugs of the binding of ^3 H-spiperone (0.5 nM) to dopamine D-2 receptors in membranes from rat corpus striatum is determined in vitro.
Male Wistar (Mol:Wistar) rats (125-250 g) are sacrificed and striatal tissue is dissected and weighed. The tissue is homogenized (Ultra Turrax, 10 sec.) in 10 ml of ice-cold 50 mM K-phosphate buffer pH 7.4 (at 25° C.). The homogenate is centrifuged twice at 20,000 g for 10 min. at 4° C. with rehomogenization of the pellet in 10 ml ice-cold buffer. The final pellet is homogenized in 1300 vol (w/v) ice-cold buffer.
Incubation tubes kept on ice in triplicate receive 100 μl of drug solution in water (or water for total binding) and 4000 μl of tissue suspension (final tissue content corresponds to 3.08 mg original tissue). The binding experimental is initiated by addition of 100 μl of ^3 H-spiperone (final concentration 0.5 nM) and by placing the tubes in a 37° C. water bath. After incubation for 10 min. the samples are filtered under vacuum (0-50 mBar) through Whatman GF/F filters (25 mm). The tubes are rinsed with 5 ml ice-cold buffer which are then poured on the filters. Thereafter, the filters are washed with 2×5 ml of buffer. The filters are placed in counting vials and 4 ml of appropriate scintillation fluid (e.g. Picofluor ™15) are added. After shaking for 1 h and storage 2 hrs in the dark the content of radioactivity is determined by liquid scintillation counting. Specific binding is obtained by subtracting the nonspecific binding in the presence of 10 μM of 6,7-ADTN.
For determination of the inhibition of binding five concentrations of drugs covering 3 decades are used.
^3 H-Spiperone=[phenyl-4-^3 H]-spiperone from Amersham International plc. England, specific activity 15-25 Ci/mmol.

The conditions of assay [1]: Meert and Janssen, Drug Dev. Res. 1989, 18, 119; cited from earlier work.
The next assay has as its system Wistar WU rats. As to the kind of experiment: Light/dark discrimination test in rats. The assay is classed as in vivo, rat. The note with it: doses from 0.1 to 1 mg/kg. On the procedure: LIGHT/DARK DISCRIMINATION TEST IN RATS
The test was carried out similarly to the test in mice described above, however modified in accordance with F. C. Colpaert et al., Psychopharmacology (1985) 86:45-54. The test used Wistar WU rats.

A further assay has as its system male albino BKW mice. Put plainly: Light/dark discrimination test in mice. The assay is classed as in vivo, mouse. The note with it: intraperitoneally 45 min before testing, doses from 0.01 to 1 mg/kg. The method, then: LIGHT/DARK DISCRIMATION TEST IN MICE
This test was carried out in accordance with the method described in Costall et al. Br. J. Pharmacol. 90 275P (1987).
The test was conducted using a two compartment activity box in which the actions of anxiolytic compounds to reduce aversion against a brightly-lit environment may be readily detected. The box is designed as an open-top experimental box (45*27*27 cm) one third of which was partitioned from the rest, painted black and illuminated with red light. The remainder of the box was painted white and brightly illuminated (1000 W). The floor of each area was lined into squares. Behavioral changes were determined for each area from video recordings for periods of 40 min.
Data obtained from dose groups of 5 animals (male albino BKW mice, 25-30 g) were analysed using single factor analysis of variance, and Dunnett's t-test. Test compounds were given intraperitoneally 45 min before testing.

A further assay concerns the target T2, 5-HT2 receptors (Rattus norvegicus, UniProt P14842).
T2 construct: cortical tissue is dissected and weighed; from tissue; host or cells: cortex of male Wistar rats, crude membranes
Put plainly: Inhibition of 3H-ketanserin binding to 5-HT2 receptors in rat cortex in vitro. The note with it: 3H-Ketanserin 0.5 nM, rat cortex, 37° C., 30 min; read-out: Receptor Binding; IC50 5-HT2 3H-Ket.

T2 sequence (P14842 whole entry): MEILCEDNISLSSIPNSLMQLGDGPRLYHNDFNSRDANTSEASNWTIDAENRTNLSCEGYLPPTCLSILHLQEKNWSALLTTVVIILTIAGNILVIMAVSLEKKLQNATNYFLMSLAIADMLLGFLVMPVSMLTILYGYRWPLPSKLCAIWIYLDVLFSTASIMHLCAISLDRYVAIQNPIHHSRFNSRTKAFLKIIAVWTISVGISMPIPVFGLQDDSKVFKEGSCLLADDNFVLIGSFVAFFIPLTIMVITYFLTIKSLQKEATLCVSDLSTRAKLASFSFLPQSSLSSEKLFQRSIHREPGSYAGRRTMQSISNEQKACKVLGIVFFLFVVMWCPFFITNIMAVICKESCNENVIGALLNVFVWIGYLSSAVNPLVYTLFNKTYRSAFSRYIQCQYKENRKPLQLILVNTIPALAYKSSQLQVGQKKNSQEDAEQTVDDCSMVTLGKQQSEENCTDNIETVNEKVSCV

`Cc1nc2sccn2c(=O)c1CCN1CCC(=C(c2ccc(F)cc2)c2ccc(F)cc2)CC1` [Ritanserin, reference compound]: the IC50 is 0.047 µM at α1 adrenoceptors and 0.012 µM on dopamine D-2 receptors. For the same compound, the “effect in the treatment of anxiety and depression” value in assay [1] was “effective in the treatment of anxiety and depression”.
For `O=C1NCCCN1CCN1CCN([C@@H]2C[C@@H](c3ccc(F)cc3)c3cc(F)ccc32)CC1` (single isomer, unassigned) [(+)-33, (+)-Trans-1-[2-[4-[5-fluoro-3-(4-fluorophenyl)-2,3-dihydro-1H-inden-1-yl]piperazin-1-yl]ethyl]-tetrahydro-2(1H)-pyrimidinone], the figures for the anxiolytic activity result in the assay on Wistar WU rats and with male albino BKW mice were “significant anxiolytic activity (p<0.05) in doses from 0.1 to 1 mg/kg” and “significant anxiolytic activity (p<0.05) in doses from 0.01 to 1 mg/kg”, respectively. Besides, the IC50 was 0.041 µM at α1 adrenoceptors and 0.0011 µM at 5-HT2 receptors.
On the same counts, the results for `Fc1ccc([C@@H]2C[C@@H](N3CCN(CCN4CCCNC4=S)CC3)c3ccc(Cl)cc32)cc1` (single isomer, unassigned) [(-)-32, (-)-Trans-1-[2-[4-[5-chloro-3-(4-fluorophenyl)-2,3-dihydro-1H-inden-1-yl]piperazin-1-yl]ethyl]-tetrahydro-2(1H)-pyrimidinethione] are “significant anxiolytic activity (p<0.05) in doses from 0.1 to 1 mg/kg”, “significant anxiolytic activity (p<0.05) in doses from 0.01 to 1 mg/kg”, 0.067 µM and 0.00075 µM.
Regarding `Cc1ccc2c(c1)[C@H](c1ccc(F)cc1)C[C@H]2N1CCN(CCN2CCNC2=O)CC1` (relative stereo) [Compound 9, Trans-1-[2-[4-[3-(4-fluorophenyl)-5-methyl-2,3-dihydro-1H-inden-1-yl]piperazine-1-yl]ethyl]-2-imidazolidinone], the IC50 on α1 adrenoceptors was found to be 0.22 µM; on dopamine D-2 receptors, 0.37 µM; on 5-HT2 receptors, 0.0037 µM.
For `Cc1ccc2c(c1)[C@H](N1CCN(CCN3CCNC3=O)CC1)C[C@H]2c1ccc(F)cc1` (relative stereo) [Compound 40, reference compound], in that order: 0.012 µM, 0.043 µM and 0.00071 µM.
For `CCN1CCN(CCN2CCN([C@@H]3C[C@@H](c4ccc(F)cc4)c4cc(Cl)ccc43)CC2)C1=O` (relative stereo) [Compound 19, Trans-1-[2-[4-[5-chloro-3-(4-fluorophenyl)-2,3-dihydro-1H-inden-1-yl]piperazin-1-yl]ethyl]-3-ethyl-2-imidazolidinone], in that order: 0.24 µM, 0.26 µM and 0.0026 µM.
For `Fc1ccc([C@@H]2C[C@@H](N3CCN(CCN4CCNC4=S)CC3)c3ccc(Cl)cc32)cc1` (relative stereo) [Compound 31, Trans-1-[2-[4-[5-chloro-3-(4-fluorophenyl)-2,3-dihydro-1H-inden-1-yl]piperazin-1-yl]ethyl]-2-imidazolidinthione], in that order: 0.052 µM, 0.067 µM and 0.0015 µM.
As to `Fc1ccc([C@H]2C[C@H](N3CCNCC3)c3ccc(Cl)cc32)cc1` (single isomer, unassigned) [(-)-10], the figures for the IC50 on α1 adrenoceptors, at dopamine D-2 receptors and on 5-HT2 receptors were 0.39 µM, 0.73 µM and 0.015 µM, respectively.
Take `Cc1cc([C@@H]2C[C@@H](N3CCN(CCO)CC3)c3ccc(Cl)cc32)cs1` (relative stereo) [Compound 6, Trans-4-[5-chloro-3-(2-methyl-4-thienyl)-2,3-dihydro-1H-inden-1-yl]-1-piperazineethanol]: the IC50 is 1 µM at α1 adrenoceptors, 2.6 µM at dopamine D-2 receptors and 0.056 µM on 5-HT2 receptors.
`Fc1ccc([C@@H]2C[C@@H](N3CCN(CCN4CCCNC4=S)CC3)c3ccc(F)cc32)cc1` (single isomer, unassigned) [(+)-30, (+)-Trans-1-[2-[4-[5-fluoro-3-(4-fluorophenyl)-2,3-dihydro-1H-inden-1-yl]piperazin-1-yl]ethyl]-tetrahydro-2(1H)-pyrimidinethione]: the IC50 at α1 adrenoceptors came to 0.043 µM; on 5-HT2 receptors, 0.00095 µM. Besides, the anxiolytic activity entry with male albino BKW mice is “significant anxiolytic activity (p<0.05) in doses from 0.01 to 1 mg/kg”.
As to `CC(C)N1CCN(CCN2CCN([C@@H]3C[C@@H](c4ccccc4F)c4cc(Cl)ccc43)CC2)C1=O` (relative stereo) [Compound 21, Trans-1-[2-[4-[5-chloro-3-(2-fluorophenyl)-2,3-dihydro-1H-inden-1-yl]piperazin-1-yl]ethyl]-3-isopropyl-2-imidazolidinone], the values for the IC50 on α1 adrenoceptors, at dopamine D-2 receptors and on 5-HT2 receptors were 0.67 µM, 0.92 µM and 0.0035 µM, respectively.
As for `CC1(C)CNC(=O)N(CCN2CCN([C@@H]3C[C@@H](c4ccc(F)cc4)c4cc(Cl)ccc43)CC2)C1` (single isomer, unassigned) [Compound 35, (+)-Trans-1-[2-[4-[5-chloro-3-(4-fluorophenyl)-2,3-dihydro-1H-inden-1-yl]piperazin-1-yl]ethyl]-5,5-dimethyl-tetrahydro-2(1H)-pyrimidinone], the IC50 at α1 adrenoceptors is 0.12 µM; on dopamine D-2 receptors, 0.15 µM; at 5-HT2 receptors, 0.0048 µM.
For `CSc1ccc2c(c1)[C@H](c1ccc(F)cc1)C[C@H]2N1CCN(CCN2CCN(C(C)C)C2=O)CC1` (relative stereo) [Compound 23, Trans-1-[2-[4-[3-(4-fluorophenyl)-5-(methylthio)-2,3-dihydro-1H-inden-1-yl]piperazin-1-yl]ethyl]-3-isopropyl-2-imidazolidinone], in that order: 0.25 µM, 0.72 µM and 0.004 µM.
As for `CN1CCN(CCN2CCN([C@@H]3C[C@@H](c4ccc(F)cc4)c4cc(Cl)ccc43)CC2)C1=O` (relative stereo) [Compound 18, Trans-1-[2-[4-[5-chloro-3-(4-fluorophenyl)-2,3-dihydro-1H-inden-1-yl]piperazin-1-yl]ethyl]-3-methyl-2-imidazolidinone], the IC50 at α1 adrenoceptors was 0.6 µM; at dopamine D-2 receptors, 0.19 µM; at 5-HT2 receptors, 0.0028 µM.
